Active and inactive are the calls of the source. The rule behind the calls is not given here.
Legend:
[1] = system: NIH3T3; assay: Wound healing activity in Swiss albino mouse 3T3 cells assessed as cell migration-associated increase in cell number at 10 uM after 12 hrs by scratch assay; format: functional, cell-based
[2] = system: NIH3T3; assay: Wound healing activity in Swiss albino mouse 3T3 cells assessed as cell migration-associated increase in cell number at 1 uM after 12 hrs by scratch assay; format: functional, cell-based
[3] = system: NIH3T3; assay: Wound healing activity in Swiss albino mouse 3T3 cells assessed as cell migration-associated increase in cell number at 20 uM after 12 hrs by scratch assay; format: functional, cell-based
[4] = system: NIH3T3; assay: Cytotoxicity against Swiss albino mouse 3T3 cells at 10 to 20 uM; format: cell-based; settings: nih3t3, 20 µM
[5] = system: Jurkat; assay: Inhibition of TNF-alpha-induced NFkappaB activity in human Jurkat cells at 10 uM after 24 hrs by EMSA; format: cell-based

SMILES	Activity [1]	Activity [2]	Activity [3]	Activity [4]	inhibition [5]
COc1c(O)cc([C@H]2Oc3cc(O)cc(O)c3[C@@H](c3c(O)cc(O)c4c3O[C@H](c3cc(O)c(OC)c(O)c3)[C@@H](O)C4)[C@@H]2O)cc1O	inactive	Active	inactive	Toxic	–
COc1c(O)cc([C@H]2Oc3c(c(O)cc(O)c3[C@H]3c4c(O)cc(O)cc4O[C@H](c4ccc(O)c(O)c4)[C@@H]3O)C[C@@H]2O)cc1O	inactive	Active	inactive	Toxic	–
COc1c(O)cc([C@H]2Oc3c(c(O)cc(O)c3[C@H]3c4c(O)cc(O)cc4O[C@H](c4cc(O)c(O)c(O)c4)[C@@H]3O)C[C@@H]2O)cc1O	inactive	Active	inactive	Toxic	Active

Reference: ChEMBL document CHEMBL1811894, “Structural and conformational analysis of proanthocyanidins from Parapiptadenia rigida and their wound-healing properties” (J Nat Prod, 2011)
